Results on 1 compound are retold here after patent US7368423B1, “Composition and method for treating chronic allograft rejection” (priority 2001, dated 2008).

In assay [1] the test system is allogeneic small bowel transplantation. The settings on record: rats sacrificed ten days after small bowel transplantation; cited from earlier work.
The subject of assay [2] is heart allografts. The following applies: cited from earlier work.
The subject of assay [3] is ACI to LEW rat cardiac transplant. The assay is classed as in vivo. The following applies: given with CSA. An excerpt:
An ACI-LEW rat cardiac transplant model was used to test the ability of 2-CDA to suppress allograft chronic rejection.
Animals were sacrificed at 90 days post transplant. Heart grafts were subjected to evaluation which included the quantification of the extent to which the following pathologies typically associated with chronic allograft rejection were present in the allograft models: myocardial Infiltration (MI), myocardial fibrosis (MF), and intimal proliferation (IP).
Each of these pathologies is associated with the vascular disease of transplant arteriosclerosis.

Each structure is given as a SMILES string.

With `Nc1nc(Cl)nc2c1ncn2[C@H]1C[C@H](O)[C@@H](CO)O1` [2-CDA, 2-chlorodeoxyadenosine], in assay [1], the “graft rejection (histology)” value is listed as “moderate to severe rejection”. In addition, in assay [2] (2-CDA alone), the “effect on allograft rejection” value is listed as “no effect”. In addition, the “rejection of heart allografts (histology)” value in assay [2] (rats, 10 days post transplant) is “severe rejection”. In addition, in assay [3], the “most effective dose of 2-CDA” value is 1 mg per kilogram of recipient body mass per week.
